Assay results taken from patent US12240811B2, “N-heterocyclic five-membered ring-containing capsid protein assembly inhibitor, pharmaceutical composition and uses thereof” (CHIA TAI TIANQING PHARMACEUTICAL GROUP CO., LTD., priority 2019, dated 2025).
pEC50: −log10 of the molar value.

How the values were obtained:
[1] = Plasma protein binding assay, dog plasma; type: in vitro ADME
Description: (§1) Formulation of plasma sample: 495 μL of blank plasmas of the corresponding species (mouse, rat, dog, monkey, and human) were drawn respectively, and thereto was added 5 μL of the corresponding test compound solution or positive control to give plasma sample solutions having a plasma drug concentration of the compound of 1 μM, and 10 μM, respectively (formulated with acetonitrile).
(§2) The pre-treated dialysis membrane was placed in a high-throughput equilibrium dialysis device, and 100 μL of the plasma sample solution and PBS buffer solution were drawn and added respectively to both sides of the dialysis membrane (sample side and buffer side) (n=3). After the equilibration device was sealed with a film, it was incubated at 37° C. overnight (100 rpm). After dialysis equilibrium was reached, 50 μL samples were drawn from the sample side and the buffer side, respectively, and the reaction was terminated by adding ice acetonitrile containing an internal standard.
(§3) Sample pre-treatment: To 50 μL of the plasma-side sample was added 450 μL of ice acetonitrile containing an internal standard, and then precipitated. After vortexing for 5 minutes, the sample was centrifugated (12000 rpm, 4° C.) for 10 minutes. 75 μL of the supernatant was pipetted, and 75 μL of ultrapure water was added thereto for dilution and mixed uniformly. 1 μL of the resulting solution was injected for analysis. […]

[2] = tested on: HBV DNA in serum; assay: pAAV/HBV mouse model; type: in vivo, C57BL/6 mice; settings: 3 mpk intragastric once daily
Description: 6-8 week old male C57BL/6 mice (Shanghai Lingchang Biotechnology Co., Ltd.) were used, and each mouse was injected with purified recombinant plasmid pAAV/HBV1.2 ([…]) dissolved in PBS equivalent to a volume of about 10% of its body weight through the tail vein within 3-8 s. Blood was collected from the orbits of the mice at 3 days after the plasmid injection to detect serum HBV DNA. The model mice having uniform serum DNA were selected and divided into: a model control group, a vehicle control group, and a test substance group. Mice in each group were continuously administered intragastrically once daily for 10 days at a dose of 3 mg/kg. The mouse serum was taken on day 0, 4, 7, and 10 after the administration, and the mice were sacrificed on day 10 to take liver tissue samples. The HBV DNA copy numbers in serum and liver of the mice were detected by fluorescent quantitative PCR method.

[3] = Stability of liver microsomes in vitro, rat; type: in vitro ADME
Description: 300 μL of a final incubation system contains 30 μL of liver microsomes (protein concentration: 0.15 mg/mL, Corning), 30 μL NADPH+MgCl2, 3 μL substrate (formulated with acetonitrile), and 237 μL PBS buffer. Duplicate incubation systems of 0.3 mL each were formulated for each species. A total volume of 270 μL of a uniformly mixed solution of the substrate and the enzyme was formulated in each tube, the solution and NADPH were pre-incubated at 37° C. for 5 minutes, respectively. Then 30 μL of the mixed solution of NADPH+MgCl2 was added for reaction. 50 μL of the reaction solution was taken out at 0, 10, 30, and 60 mins, and the reaction was terminated with 300 μL of ice acetonitrile containing an internal standard.
Sample pre-treatment: To 50 μL of the incubated sample was added 300 μL of ice acetonitrile containing diazepam as an internal standard and then precipitated. After vortexing for 5 minutes, the sample was centrifugated (12000 rpm, 4° C.) for 10 minutes. 75 μL of the supernatant was pipetted into a 96-well plate, and then diluted with 75 μL ultrapure water and mixed uniformly. 0.5 μL of the resulting solution was injected and analyzed by LC-MS/MS.

[4] = tested on: HBV DNA in HepG2.2.15 cells; assay: In vitro cell HBV DNA inhibitory activity in HepG2.2.15 cells; type: cell-based; settings: Hepatitis B virus, 144 h, 6 days treatment, intracellular capsid HBV DNA by qPCR, read-out: EC50, anti-HBV activity in HepG2.2.15 cells
Description: A bottle of HepG2.2.15 (Wuhan Institute of Virology) or HepAD38 cells in good exponential growth state was taken, washed once by adding 5 mL PBS, and then thereto was added 3 mL trypsin. After digesting at room temperature for 5 min, 2 mL trypsin was discarded, and then the sample was placed in a cell culture incubator and digested for 10 min. The cells were taken out and observed under a microscope (whether the cells were individually round and there was no adhesion between the cells). 10 mL complete medium was added to terminate the digestion. After pipetting into a single cell suspension, 10 μL of the cell suspension was taken out for cell counting with a cell counter, and then diluted with a complete medium and adjusted to a cell density of 1*10^5 cells/mL. […]
Compounds dissolved in DMSO were subjected to two-fold gradient dilution (10 concentrations in total) with complete medium. […] After lysing at room temperature for 10 min, DNA was extracted, and HBV DNA in the intracellular viral capsid was measured by real-time fluorescence quantitative PCR. The inhibition rate was calculated based on the Ct value, and the EC50 value was calculated by the four-parameter method.

[5] = Plasma protein binding assay, monkey plasma; type: in vitro ADME
Description: as §1, §2, §3

In the case of `Cc1[nH]c(C(=O)C(=O)N[C@@H](C)C(F)(F)F)c(C)c1C(=O)Nc1ccc(F)c(C#N)c1` [Example 1, (S)—N-(3-cyano-4-fluorophenyl)-2,4-dimethyl-5-(2-oxo-2-((1,1,1-trifluoroprop-2-yl)amino)acetyl)-1H-pyrrole-3-carboxamide], the “Binding rate (%) Dog” value ([1]; 1 μM) was 94.0%, the “Binding rate (%) Dog” value ([1]; 10 μM) was 93.9% and the “Reduction levels (log10) of HBV DNA in serum, Day 4” value ([2]; Day 4) was 2.95 log10. For the same compound, the “Reduction levels (log10) of HBV DNA in serum, Day 7” value ([2]; Day 7) was 4.13 log10, the “Reduction levels (log10) of HBV DNA in serum, Day 10” value ([2]; Day 10) was 2.71 log10 and the “Remaining (%) of rat liver microsomes at 60 min” value [3] was 99%. For the same compound, the pEC50 [4] was 7.76, the “Binding rate (%) Monkey” value ([5]; 1 μM) was 90.2% and the “Binding rate (%) Monkey” value ([5]; 10 μM) was 90.5%.
